{"source": "patent US10464896B2", "about": "“Efflux-pump inhibitors and therapeutic uses thereof” (Basilea Pharmaceutica International AG, priority 2015, dated 2019)"}
{"test_system": "E. coli ATCC25922", "test": "Antibacterial activity in combination with minocycline (growth inhibition)", "format": "cell-based", "conditions": "Escherichia coli, ATCC25922, compound at 25 μM; minocycline 0.25 μg/mL; OD625 23 h minus 1 h; read-out: residual growth of E. coli ATCC25922 (% of uninhibited control) with minocycline", "method_in_brief": "(§1)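 Test compound combined with fixed subinhibitory partner antibiotic: linezolid 128 μg/mL for either strain, minocycline 0.25 μg/mL (E. coli) or 8 μg/mL (P. aeruginosa), in caMHB shaken at 37 °C. Residual growth as % of inhibitor-free control, from OD625 at 23 h minus 1 h.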", "units": {"activity at 25 µM": "%"}}
{"smiles": "CC(C)COc1ccc(OCc2ccc(Cl)cc2Br)cc1CNCC1CCNC1", "note": "(centres unmarked) [Example 416]", "activity at 25 µM": "≤ 10"}
{"smiles": "C=CCOc1ccc(/C=C/c2ccc(Cl)cc2Br)cc1CNCC1CCNC1", "note": "(centres unmarked) [Example 419]", "activity at 25 µM": "≤ 10"}
{"smiles": "C=CCOc1ccc(/C=C/c2ccc(Cl)cc2Br)cc1CNCC1CNC1", "note": "[Example 421]", "activity at 25 µM": "≤ 10"}
{"smiles": "CC(C)COc1ccc(OCc2ccc(Cl)cc2Br)cc1CNCC1CNC1", "note": "[Example 422]", "activity at 25 µM": "≤ 10"}
{"smiles": "O=c1[nH]nc(CCOc2cc(/C=C/c3ccc(Cl)cc3Br)cc(CNCC3CCNC3)c2)o1", "note": "(centres unmarked) [Example 429]", "activity at 25 µM": "≤ 10"}
{"smiles": "Cc1noc(C)c1CCOc1cc(/C=C/c2ccc(Cl)cc2Br)cc(CNCC2CCNC2)c1", "note": "(centres unmarked) [Example 430]", "activity at 25 µM": "≤ 10"}
{"smiles": "CC(C)COc1ccc(/C=C/c2ccc(Cl)cc2Br)cc1CNCC1CCNC1", "note": "(centres unmarked) [Example 431]", "activity at 25 µM": "≤ 10"}
{"smiles": "Cc1n[nH]c(C)c1CCOc1cc(/C=C/c2ccc(Cl)cc2Br)cc(CNCC2CCNC2)c1", "note": "(centres unmarked) [Example 433]", "activity at 25 µM": "≤ 10"}
{"smiles": "C=CCOc1cc(/C=C/c2ccc(Cl)cc2Br)cc(CNCC(=O)NCC2CNC2)c1", "note": "[Example 443]", "activity at 25 µM": "≤ 10"}
{"smiles": "C=CCOc1cc(/C=C/c2ccc(Cl)cc2Br)cc(C[N+](C)(C)CC(=O)NCC2CNC2)c1", "note": "[Example 444]", "activity at 25 µM": "≤ 10"}
{"smiles": "N#Cc1cncc(/C=C/c2cc(OCc3ccccc3)cc(CNCC3CCNC3)n2)c1", "note": "(centres unmarked) [Example 446]", "activity at 25 µM": "≤ 10"}
{"smiles": "C=CCOc1cc(/C=C/c2ccc(Cl)cc2Br)cc(CN(CC2CNC2)CC2CNC2)c1", "note": "[Example 448]", "activity at 25 µM": "≤ 10"}
{"smiles": "C=CCOc1cc(/C=C/c2ccc(Cl)cc2Br)cc(CNCCNC(=O)C2CNC2)c1", "note": "[Example 450]", "activity at 25 µM": "≤ 10"}
{"smiles": "C=CCOc1cc(/C=C/c2ccc(Cl)cc2Br)cc(C(=O)NCCNCC2CNC2)c1", "note": "[Example 451]", "activity at 25 µM": "≤ 10"}
{"smiles": "C=CCOc1cc(/C=C/c2ccc(Cl)cc2Br)cc(CNC(=O)C[N+](C)(C)CC2CNC2)c1", "note": "[Example 452]", "activity at 25 µM": "≤ 10"}
{"smiles": "C=CCOc1cc(/C=C/c2ccc(Cl)cc2Br)cc(CNCCNCC2CNC2)c1", "note": "[Example 453]", "activity at 25 µM": "≤ 10"}
{"smiles": "C=CCOc1cc(/C=C/c2ccc(Cl)cc2Br)cc(CNCCN(CC2CNC2)CC2CNC2)c1", "note": "[Example 455]", "activity at 25 µM": "≤ 10"}
{"smiles": "C=CCOc1cc(/C=C/c2ccc(Cl)cc2Br)cc(C(=O)N(CC2CNC2)CC2CNC2)c1", "note": "[Example 456]", "activity at 25 µM": "≤ 10"}
{"smiles": "C=CCOc1cc(/C=C/c2cncc(C(=O)OC)c2)cc(CNCC2CCNC2)c1", "note": "(centres unmarked) [Example 457]", "activity at 25 µM": "≤ 10"}
{"smiles": "CC(C)COc1cc(/C=C/c2cccnc2)cc(C[N+](C)(C)CC2CCNC2)c1", "note": "(centres unmarked) [Example 459]", "activity at 25 µM": "≤ 10"}
{"smiles": "CC(C)COc1cc(/C=C/c2cncc(C#N)c2)cc(C[N+](C)(C)CC2CCNC2)c1", "note": "(centres unmarked) [Example 460]", "activity at 25 µM": "≤ 10"}
{"smiles": "Clc1ccc(COc2ccc(OCCc3c[nH]cn3)c(CNCC3CCNC3)c2)c(Br)c1", "note": "(centres unmarked) [Example 463]", "activity at 25 µM": "≤ 10"}
{"smiles": "Clc1ccc(/C=C/c2ccc(OCCc3c[nH]cn3)c(CNCC3CCNC3)c2)c(Br)c1", "note": "(centres unmarked) [Example 464]", "activity at 25 µM": "≤ 10"}
{"smiles": "Clc1ccc(COc2ccc(OCCc3c[nH]cn3)c(CNCC3CNC3)c2)c(Br)c1", "note": "[Example 465]", "activity at 25 µM": "≤ 10"}
{"smiles": "Clc1ccc(/C=C/c2ccc(OCCc3c[nH]cn3)c(CNCC3CNC3)c2)c(Br)c1", "note": "[Example 471]", "activity at 25 µM": "≤ 10"}
{"smiles": "Clc1ccc(/C=C/c2cc(OCCCNCC3CNC3)cc(OCCc3ccncc3)c2)c(Br)c1", "note": "[Example 509]", "activity at 25 µM": "≤ 10"}
{"smiles": "Cc1cc(COc2ccc(OCCCNCC3CNC3)c(/C=C/c3ccc(Cl)cc3Br)c2)no1", "note": "[Example 512]", "activity at 25 µM": "≤ 10"}
{"smiles": "CC(C)COc1ccc(/C=C/c2ccc(Cl)cc2Br)cc1OCCCNCC1CNC1", "note": "[Example 513]", "activity at 25 µM": "≤ 10"}
{"smiles": "O=C(NCCNC(=O)C1CNC1)c1cc(/C=C/c2ccc(Cl)cc2Br)cc(OCCc2ccncc2)c1", "note": "[Example 515]", "activity at 25 µM": "≤ 10"}
{"smiles": "Clc1ccc(/C=C/c2cc(OCCCCNCC3CNC3)cc(OCCc3ccncc3)c2)c(Br)c1", "note": "[Example 517]", "activity at 25 µM": "≤ 10"}
{"smiles": "O=C(NCCNCC1CNC1)c1cc(/C=C/c2ccc(Cl)cc2Br)cc(OCCc2ccncc2)c1", "note": "[Example 518]", "activity at 25 µM": "≤ 10"}
{"smiles": "Clc1ccc(/C=C/c2cc(OCc3ccncc3)ccc2OCCCNCC2CNC2)c(Br)c1", "note": "[Example 519]", "activity at 25 µM": "≤ 10"}
{"smiles": "Cc1cc(COc2ccc(/C=C/c3ccc(Cl)cc3Br)cc2CNC(=O)C2CCNC2)no1", "note": "(centres unmarked) [Example 523]", "activity at 25 µM": "≤ 10"}
{"smiles": "Clc1ccc(/C=C/c2cc(OCCc3ccncc3)ccc2OCCCNCC2CNC2)c(Br)c1", "note": "[Example 525]", "activity at 25 µM": "≤ 10"}
{"test_system": "E. coli ATCC25922", "test": "Antibacterial activity in combination with minocycline (growth inhibition)", "format": "cell-based", "conditions": "Escherichia coli, ATCC25922, compound at 50 μM; minocycline 0.25 μg/mL; OD625 23 h minus 1 h; read-out: residual growth of E. coli ATCC25922 (% of uninhibited control) with minocycline", "method_in_brief": "as §1", "units": {"activity at 50 µM": "%"}}
{"smiles": "C=CCOc1cc(CNCC2CCNC2)cc(OCc2cccnc2)c1", "note": "(centres unmarked) [Example 417]", "activity at 50 µM": "≤ 50"}
{"smiles": "C=CCOc1cc(CNCC2CCNC2)cc(OCCc2cccnc2)c1", "note": "(centres unmarked) [Example 418]", "activity at 50 µM": "≤ 50"}
{"smiles": "C=CCOc1cc(CNCC2CNC2)cc(OCCc2ccncc2)c1", "note": "[Example 423]", "activity at 50 µM": "≤ 50"}
{"smiles": "C(=C\\c1cc(CNCC2CNC2)cc(OCCc2ccncc2)c1)/c1cccnc1", "note": "[Example 438]", "activity at 50 µM": "≤ 50"}
{"smiles": "CC(C)COc1cc(CNCC2CCNC2)cc(NC(=O)c2cccnc2)c1", "note": "(centres unmarked) [Example 485, N-[3-isobutoxy-5-[(pyrrolidin-3-ylmethylamino)methyl]phenyl]pyridine-3-carboxamide]", "activity at 50 µM": "≤ 50"}
{"smiles": "C=CCOc1cc(/C=C/c2cncc(O)c2)cc(CNCC2CCNC2)c1", "note": "(centres unmarked) [Example 499]", "activity at 50 µM": "≤ 50"}
{"test_system": "P. aeruginosa PAO1", "test": "Antibacterial activity in combination with minocycline (growth inhibition)", "format": "cell-based", "conditions": "Pseudomonas aeruginosa, PAO1, compound at 50 μM; minocycline 8 μg/mL; OD625 23 h minus 1 h; read-out: residual growth of P. aeruginosa PAO1 (% of uninhibited control) with minocycline", "method_in_brief": "as §1", "units": {"activity at 50 µM": "%"}}
{"smiles": "Clc1ccc(OCc2ccc(CNCC3CNC3)o2)c(Br)c1", "note": "[Example 93]", "activity at 50 µM": "≤ 50"}
{"smiles": "CS(=O)(=O)c1ccc(COc2cccc(CNCC3CNC3)c2)c(Cl)c1", "note": "[Example 102]", "activity at 50 µM": "≤ 50"}
{"smiles": "Ic1ccc(COc2cccc(CNCC3CNC3)c2)cc1", "note": "[Example 206]", "activity at 50 µM": "≤ 50"}
{"smiles": "O=C(O)c1ccc(COc2cc(CNCC3CNC3)cc(OCc3ccc(Cl)cc3Br)c2)cc1", "note": "[Example 208]", "activity at 50 µM": "≤ 50"}
{"smiles": "Brc1ccccc1COc1cccc(CNCC2CCNC2)c1", "note": "(centres unmarked) [Example 220]", "activity at 50 µM": "≤ 50"}
{"smiles": "C=CCOc1cc(CNCC2CCNC2)cc(CNC(=O)c2ccc(Cl)cc2Br)c1", "note": "(centres unmarked) [Example 349]", "activity at 50 µM": "≤ 50"}
{"smiles": "C=CCOc1cc(CNCC2CNC2)cc(OCc2cc(C)on2)c1", "note": "[Example 420]", "activity at 50 µM": "≤ 50"}
{"smiles": "C=CCOc1cc(CNCC2CCNC2)cc(OCCc2ccncc2)c1", "note": "(centres unmarked) [Example 424]", "activity at 50 µM": "≤ 50"}
{"smiles": "c1cncc(COc2cc(CNCC3CNC3)cc(OCCc3ccncc3)c2)c1", "note": "[Example 425]", "activity at 50 µM": "≤ 50"}
{"smiles": "C=CCOc1cc(CNCC2CNC2)cc(OCc2cncc(C(N)=O)c2)c1", "note": "[Example 437]", "activity at 50 µM": "≤ 50"}
{"smiles": "C(=C\\c1cc(CNCC2CCNC2)cc(OCCN2CCOCC2)c1)/c1cccnc1", "note": "(centres unmarked) [Example 440]", "activity at 50 µM": "≤ 50"}
{"smiles": "C=CCOc1cc(/C=C/c2cncc(C(N)=O)c2)cc(CNCC2CCNC2)c1", "note": "(centres unmarked) [Example 458]", "activity at 50 µM": "≤ 50"}
{"smiles": "N#Cc1cncc(/C=C/c2cc(CNCC3CCNC3)cc(OCc3ccccn3)c2)c1", "note": "(centres unmarked) [Example 474]", "activity at 50 µM": "≤ 50"}
{"smiles": "CC(C)COc1cc(CNCC2CCNC2)cc(CNC(=O)c2cccc(C(N)=O)c2)c1", "note": "(centres unmarked) [Example 477, N1-[[3-isobutoxy-5-[(pyrrolidin-3-ylmethylamino)methyl]phenyl]methyl]benzene-1,3-dicarboxamide]", "activity at 50 µM": "≤ 50"}
{"smiles": "N#Cc1cncc(/C=C/c2cc(O)cc(CNCC3CCNC3)c2)c1", "note": "(centres unmarked) [Example 480, 5-[(E)-2-[3-hydroxy-5-[(pyrrolidin-3-ylmethylamino)methyl]phenyl]vinyl]pyridine-3-carbonitrile]", "activity at 50 µM": "≤ 50"}
{"smiles": "N#Cc1cncc(/C=C/c2cc(CNCC3CCNC3)cc(OCCc3ccncc3)c2)c1", "note": "(centres unmarked) [Example 496]", "activity at 50 µM": "≤ 50"}
